Earlier results as cited in patent publication US20140220152A1, “Compositions and Methods for Detecting, Treating, or Preventing Reductive Stress” (University of Utah Research Foundation, priority 2007, published 2014).

Tests used:
[1] = target: mammalian glucose-6-phosphate dehydrogenase (G6PDH) (Homo sapiens, UniProt P11413)
[2] = humans taking repeated doses of 250 mg disulfuram daily
[3] = rodents

mammalian glucose-6-phosphate dehydrogenase (G6PDH), sequence (P11413 whole entry): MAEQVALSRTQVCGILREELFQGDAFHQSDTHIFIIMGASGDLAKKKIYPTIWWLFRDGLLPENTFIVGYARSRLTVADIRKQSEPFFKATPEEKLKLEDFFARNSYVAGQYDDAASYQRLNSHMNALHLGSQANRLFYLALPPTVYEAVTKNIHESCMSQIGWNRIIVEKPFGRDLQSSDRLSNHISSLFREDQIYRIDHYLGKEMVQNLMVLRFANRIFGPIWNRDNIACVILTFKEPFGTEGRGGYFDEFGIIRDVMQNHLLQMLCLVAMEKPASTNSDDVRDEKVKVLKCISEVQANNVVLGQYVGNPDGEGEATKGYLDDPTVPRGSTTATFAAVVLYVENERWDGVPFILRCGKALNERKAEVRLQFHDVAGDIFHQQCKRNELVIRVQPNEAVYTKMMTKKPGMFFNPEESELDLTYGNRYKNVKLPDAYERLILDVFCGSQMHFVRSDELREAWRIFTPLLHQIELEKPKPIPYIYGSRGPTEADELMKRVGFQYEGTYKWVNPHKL

C[C@]12CC[C@H](O)C[C@@H]1CC[C@@H]1[C@@H]2CC[C@]2(C)C(=O)[C@H](Br)C[C@@H]12 [16α-bromoepiandrosterone]
inhibition of mammalian G6PDH [1]: more potent inhibitor of mammalian G6PDH than DHEA

C[C@]12CC[C@H](O)CC1=CC[C@@H]1[C@@H]2CC[C@]2(C)C(=O)CC[C@@H]12 [DHEA, Dehydroepiandrosterone]
inhibition of mammalian G6PDH [1]: potent non-competitive inhibitor

CCN(CC)C(=S)SSC(=S)N(CC)CC [Disulfuram, tetraalkylthiuram disulfide]
Steady-state serum levels [2]: approximately 1.3 μM | LD50 [3]: 8600 mg/kg
